Source: patent publication US20250145606A1 (Arcus Biosciences, Inc., priority 2023, published 2025)

Key:
Type in all cases: in vitro ADME
Conditions in all cases: 5 μM, 4 hours
[1] = system: cynomolgus monkey hepatocytes; experiment: Bioactivation assessment in monkey hepatocytes
Description: (§1) Bioactivation Assessment Procedure
(§2) Pooled male Sprague Dawley rat (BioIVT), male beagle dog (BioIVT), male cynomolgus monkey (BioIVT), and a 50-donor pool of cryopreserved human hepatocytes (BioIVT) was thawed in pre-warmed 37° C. InVitroGro™ HT media (BioIVT), centrifuged, and resuspended in the InVitroGro™ HI media (BioIVT). The number of viable cells was determined by the Trypan blue exclusion method. The cells were diluted to a concentration of two million viable cells per milliliter (viability >80%) and seeded into round-bottom 96-well plates. The test articles were dissolved in DMSO and further diluted in 50% CH3CN and InVitroGro™ HI media with final concentrations of 0.05% DMSO and 0.5% CH3CN in the incubation mixture. Incubation was performed at a final concentration of one million cells per milliliter and 5 μM test compounds with continuous shaking at 1100 rpm in a 37° C., 5/95% CO2/air incubator with 100% relative humidity. After 4 hours, the samples were quenched by addition of 3 volumes of CH3CN, vortexed for 15 minutes, and centrifuged at 4200 rpm for 15 minutes at 10° C. (Sorvall Legend XTR centrifuge, Thermo Scientific, Langenselbold, Germany). 80 μL of the resulting supernatant was transferred into a new plate and mixed with 160 μL water followed by liquid chromatography-high resolution mass spectrometry (LC-HRMS) analysis.
(§3) Structural assignments of metabolites were determined through mass spectral analysis. The level of bioactivation was estimated based on the relative peak area of bioactivation products to all identified metabolites. The following equation was used: […]
(§4) Bioactivation products included glutathione conjugates, imine methides, quinones, diols, and other relevant metabolites.

[2] = system: beagle dog hepatocytes; experiment: Bioactivation assessment in dog hepatocytes
Description: as §1, §2, §3, §4

[3] = system: Sprague Dawley rat hepatocytes; experiment: Bioactivation assessment in rat hepatocytes
Description: as §1, §2, §3, §4

[4] = system: human hepatocytes; experiment: Bioactivation assessment in human hepatocytes
Description: as §1, §2, §3, §4

Compound: Cc1ccc(-c2noc([C@H]3C[C@@H]3F)n2)cc1NC(=O)c1cnc2ccccn12 [labuxtinib, reference compound]
- Percent of total metabolism via bioactivation, Monkey hepatocytes [1]: 31%
- Percent of total metabolism via bioactivation, Dog hepatocytes [2]: 17%
- Percent of total metabolism via bioactivation, Rat hepatocytes [3]: 45%
- Percent of total metabolism via bioactivation, Human hepatocytes [4]: 24%
